In experiment [1] the test system is Adra2a KO mice. Particulars: romiplostim 1 mg/kg s.c. days 1, 8, 15, 5 mg/kg i.p. daily for two weeks from day 8. As for the experimental part:
(§1) 8-week female C57BL/6 J wild-type and Adra2a KO mice were administered saline or 1 mg/kg of romiplostim by a subcutaneous injection into the neck skin on days 1, 8 and 15. Clonidine or guanabenz were administrated i.p. at a dose of 5 mg/kg daily for two weeks starting from day 8. Mice were dissected on day 22 and spleen weight were measured. After killing, peripheral blood was drawn by cardiac puncture, the platelet concentration was measured by Cell Counter Analyzer MS9-5V.

The subject of experiment [2] is C57BL/6 J wild-type mice. As to conditions: romiplostim 1 mg/kg s.c. days 1, 8, 15, 5 mg/kg i.p. daily for two weeks from day 8. As for the experimental part:
as §1

For experiment [3], the system named is TiRP-tumor bearing mice. Particulars: TiRP-tumor bearing mice with ACT of 10 million P1A-specific CD8+ T cells; each drug 5 mg/kg i.p. daily from tumor size around 500 mm^3.
Experiment [4] relates to C56BL/6 Wildtype mice implanted with MC38 colon carcinomas. The experiment is described as follows: Tumor-induced splenomegaly, MC38 colon carcinomas in wildtype mice. Particulars: 5 mg/kg i.p. daily from tumor size around 50 mm^3. Type of experiment: in vivo. As for the experimental part: (§2) C56BL/6 Wildtype or C56BL/6 Adra2a KO mice were implanted with MC38 colon carcinomas and received daily injections of vehicle control, guanabenz or clonidine (5 mg/kg, i.p.) when the tumor size was around 50 mm^3, until the day of sacrifice. Spleen weight were taken at the time of mice dissection.

For experiment [5], the system named is TiRP tumor bearing mice. The experiment is described as follows: Tumor-induced splenomegaly in TiRP tumor bearing mice (spleen weight). Type of experiment: in vivo. Particulars: 5 mg/kg i.p. daily from tumor size around 500 mm^3 until sacrifice. An excerpt: TiRP mice have been created by crossing Ink4a/Arf^flox/flox mice with mice carrying a transgenic construct controlled by the tyrosinase promoter and driving the expression of H-Ras^12V and Trap1a which encodes a MAGE-type tumor antigen […]; the promoter is separated from the coding region by a stop cassette made of a floxed self-deleting CreER (Huijbers et al., 2006, Cancer Res 66, 3278-3286). Those mice were backcrossed to a B10.D2 background and bred to homozygosity. TCR[…] mice heterozygous for the H-2Ld/[…]-43-specific TCR transgene were kept on the B10.D2;Rag1^-/- background ([…] et al., 2004, J Immunol 172, 5069-5077). DBA/2 mice and C57BL/6J mice were used in tumor transplantation and mice immunization experiments. All mice used in this study were produced under specific pathogen free (SPF) conditions at the animal facility of the de Duve Institute. All the rules concerning animal welfare have been respected according to the 2010/63/EU Directive. All procedures were performed with the approval of the local Animal Ethical Committee, with reference 2015/UCL/MD/15. A fresh solution of […]-Tamoxifen was prepared by dissolving […]-Tamoxifen ([…]®) in 100% ethanol and mineral oil (ratio 1:9) followed by 30 min sonication, and injected subcutaneously (2 mg/200 μL per mouse) in the neck area of gender-matched 7 weeks old TiRP mice. Tumor appearance was monitored daily and tumors were measured three times/week. Tumor volume (in mm^3) was calculated by the following formula: Volume=width^2×length/2. C57BL/6 mice were injected subcutaneously with 1 million B16F1 or B16F10 melanoma cells at an age between 6 to 8 weeks. The mice received daily injections of guanabenz (5 mg/kg, i.p.) or PBS when the tumor size was around 100 mm^3. Mice were sacrificed when the tumor in control group reached 1,000 mm^3. Spleen were isolated and weighted. […] TiRP tumor bearing mice received daily injections of clonidine (5 mg/kg, i.p.), romifidine (5 mg/kg, i.p.) or PBS when the tumor size was around 500 mm^3. […] Spleen were isolated and spleen weight was measured with an analytical balance.

Experiment [6] has as its system mice transplanted with JAK2V617F mutated bone marrow. Description: Splenomegaly induced by myelofibrosis (JAK2V617F mutated bone marrow transplantation). Type of experiment: in vivo. Particulars: for spleen weight (myelofibrosis-induced splenomegaly), prevention: treatment started one week after bone marrow transplantation, 5 mg/kg daily for three weeks; for spleen weight (myelofibrosis-induced splenomegaly), treatment: treatment started three weeks after bone marrow transplantation, splenomegaly already formed, 5 mg/kg daily for two weeks.

The test system of experiment [7] is C56BL/6 Adra2a KO mice implanted with MC38 colon carcinomas. Description: Tumor-induced splenomegaly, MC38 colon carcinomas in Adra2a KO mice. Type of experiment: in vivo. Particulars: 5 mg/kg i.p. daily from tumor size around 50 mm^3. Here is the method: as §2
Experiment [8] concerns BALB/c mice bearing CT26 colon carcinomas. Description: Splenomegaly in mice bearing CT26 colon carcinomas, agonist/antagonist evaluation. Type of experiment: in vivo. Particulars: each drug 5 mg/kg i.p. daily from tumor size around 50 mm^3. Here is the method:
B16F1, B16F10 melanoma cells, and CT26 colon carcinoma cells were cultured in IMDM medium supplemented with 10% Fetal bovine serum (FBS). […] For evaluation of phentolamine on the effect of clonidine and guanabenz, the mice were randomized into different groups when tumors size arrived around 50 mm^3 and received daily injections of guanabenz (5 mg/kg, i.p.), phentolamine (5 mg/kg, i.p.), propranolol (5 mg/kg, i.p.), a mix of guanabenz (5 mg/kg, i.p.) and phentolamin (5 mg/kg, i.p.), clonidine (5 mg/kg, i.p.), a mix of clonidine (5 mg/kg, i.p.) and phentolamin (5 mg/kg, i.p.), a mix of clonidine (5 mg/kg, i.p.) and propranolol (5 mg/kg, i.p.) or vehicle control. Tumor size was measured every 2 days and mice were sacrificed when the tumor in control group reached 1,000 mm^3. Spleen were isolated and spleen weight was measured with an analytical balance. Spleen from mice of same age without tumors were used as controls.

Experiment [9] concerns flatworm-induced splenomegaly (schistosomiasis). Particulars: cited from earlier work.
Experiment [10] concerns DBA/2 mice. The experiment is described as follows: Splenomegaly induced by virus-mediated (Chadox_li_P1A prime, MVA_P1A boost) immunization. Type of experiment: in vivo. Particulars: 5 mg/kg 2 hours before and daily after immunization, two weeks.
Experiment [11] concerns B16F1 tumor-bearing mice. Description: Tumor-induced splenomegaly in B16F1 tumor-bearing mice (spleen weight). Type of experiment: in vivo. As to conditions: 5 mg/kg i.p. daily from tumor size around 100 mm^3. Here is the method: (§3) B16F1, B16F10 melanoma cells, and CT26 colon carcinoma cells were cultured in IMDM medium supplemented with 10% Fetal bovine serum (FBS). C57BL/6 mice were injected subcutaneously with 1 million B16F1 or B16F10 melanoma cells at an age between 6 to 8 weeks. The mice received daily injections of guanabenz (5 mg/kg, i.p.) or PBS when the tumor size was around 100 mm^3. Mice were sacrificed when the tumor in control group reached 1,000 mm^3. Spleen were isolated and weighted. […] TiRP tumor bearing mice received daily injections of clonidine (5 mg/kg, i.p.), romifidine (5 mg/kg, i.p.) or PBS when the tumor size was around 500 mm^3. Mice were sacrificed when the tumor in control group reached 1,500 mm^3. Spleen were isolated and spleen weight was measured with an analytical balance.

Experiment [12] concerns B16F10 tumor-bearing mice. The experiment is described as follows: Tumor-induced splenomegaly in B16F10 tumor-bearing mice (spleen weight). Type of experiment: in vivo. Particulars: 5 mg/kg i.p. daily from tumor size around 100 mm^3. As for the experimental part:
as §3

In experiment [13] the test system is C57BL/6J mice. The experiment is described as follows: Splenomegaly induced by protein-mediated (Ovalbumin) immunization. Type of experiment: in vivo. Particulars: 5 mg/kg 2 hours before and daily after immunization, one week. Here is the method:
C57BL/6J mice were immunized once by intraperitoneal (i.p.) injection of 200 μg of OVA protein adsorbed onto Alhydrogel adjuvant 2% (Sigma Aldrich®). These mice were administered 100 μg (5 mg/kg) of guanabenz 2 hours before the immunization and daily after the immunization. […] One week after the immunization, mice were sacrificed, the spleen of each mouse was collected, and spleen weight was measured with an analytical balance.

The subject of experiment [14] is patient with obesity-related diseases, such as fatty liver. Particulars: cited from earlier work.

Structures are written as SMILES.

Take `Clc1cccc(Cl)c1N=C1NCCN1` [clonidine]: the “spleen weight (romiplostim-induced splenomegaly)” value in [1] is “not in Adra2a KO mice”; in experiment [2] it was “significantly reduced the splenomegaly”. In addition, the entries for the “spleen weight / spleen size” value in experiment [3] and in experiment [8] were “reduced spleen size” and “reduced the spleen size”, respectively. The “spleen weight (tumor-induced splenomegaly)” value is given as “inhibit tumor-induced splenomegaly” in experiment [4], “TiRP tumor-induced splenomegaly is inhibited” in [5] and “no inhibition is observed” in [7]. For the same molecule, in experiment [6], the “spleen weight (myelofibrosis-induced splenomegaly), prevention” value was “significantly reduced the splenomegaly”. The “spleen weight (myelofibrosis-induced splenomegaly), treatment” value in experiment [6] is “significantly reduced the splenomegaly”.

In the case of `CN1C[C@H](C(=O)N[C@]2(C)O[C@@]3(O)[C@@H]4CCCN4C(=O)[C@H](Cc4ccccc4)N3C2=O)C=C2c3cccc4[nH]cc(c34)C[C@H]21` [ergotamine], the splenomegaly result in [9] is listed as “reduced flatworm-induced splenomegaly”.

`N=C(N)N/N=C/c1c(Cl)cccc1Cl` [guanabenz]: the “spleen weight (immunization-induced splenomegaly)” value in [10] and in [13] was “inhibits splenomegaly” in each case. The “spleen weight (tumor-induced splenomegaly)” value in experiment [11] is listed as “can reverse the tumor-induced splenomegaly”; in experiment [12], “can reverse the tumor-induced splenomegaly”; in experiment [4], “inhibit tumor-induced splenomegaly”; in experiment [5], “can reverse the tumor-induced splenomegaly”; in experiment [7], “no inhibition is observed”. For the same molecule, the “weight of the spleen” value in experiment [14] is reported as “promoting a decrease in the weight of the spleen”. Further, the “spleen weight (myelofibrosis-induced splenomegaly), prevention” value in experiment [6] is on record as “significantly reduced the splenomegaly”. Further, the “spleen weight (myelofibrosis-induced splenomegaly), treatment” value in experiment [6] was “significantly reduced the splenomegaly”. For the same molecule, the “spleen weight / spleen size” value in experiment [8] was “reduced the spleen size”.

Regarding `Fc1cccc(Br)c1NC1=NCCN1` [romifidine], the “spleen weight (tumor-induced splenomegaly)” value in [5] is recorded as “TiRP tumor-induced splenomegaly is inhibited”.

The values are drawn from patent US20230149360A1, “ALPHA-2 ADRENERGIC RECEPTOR AGONISTS FOR THE PREVENTION AND/OR THE TREATMENT OF SPLEEN DISORDERS” (UNIVERSITÉ CATHOLIQUE DE LOUVAIN, priority 2020, published 2023).
